Assay [1] addresses T1, 5-LOX (Homo sapiens, UniProt P09917).
T1 sequence (P09917 1-674): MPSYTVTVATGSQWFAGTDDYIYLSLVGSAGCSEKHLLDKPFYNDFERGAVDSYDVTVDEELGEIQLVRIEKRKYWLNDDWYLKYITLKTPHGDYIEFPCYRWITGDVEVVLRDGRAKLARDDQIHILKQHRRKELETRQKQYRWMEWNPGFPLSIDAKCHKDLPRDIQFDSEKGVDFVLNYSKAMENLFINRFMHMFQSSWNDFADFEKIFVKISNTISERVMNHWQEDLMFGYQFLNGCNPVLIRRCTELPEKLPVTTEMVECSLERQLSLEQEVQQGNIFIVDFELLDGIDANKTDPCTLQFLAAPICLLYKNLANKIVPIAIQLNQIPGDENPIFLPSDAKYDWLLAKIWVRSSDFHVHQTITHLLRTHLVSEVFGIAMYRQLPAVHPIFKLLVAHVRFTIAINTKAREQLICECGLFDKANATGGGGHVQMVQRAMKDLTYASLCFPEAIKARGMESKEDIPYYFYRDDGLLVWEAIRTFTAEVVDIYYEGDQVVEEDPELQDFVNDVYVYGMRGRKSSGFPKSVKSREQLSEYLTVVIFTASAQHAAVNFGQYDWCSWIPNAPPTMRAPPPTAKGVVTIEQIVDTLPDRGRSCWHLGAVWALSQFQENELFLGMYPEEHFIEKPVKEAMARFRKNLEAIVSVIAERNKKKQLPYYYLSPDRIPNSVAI
Briefly: Cell-free 5-LOX activity (isolated human recombinant enzyme).

The target of assay [2] is T1, 5-LOX. Briefly: 5-LOX product formation in activated PMNL.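 Also: freshly isolated human PMNL in PBS pH 7.4 plus glucose, preincubated 10 min at 37 °C with compound, 5-LOX products (all-trans LTB4 isomers, 5-HETE) quantified by RP-HPLC.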
Where [3] appears, read: read-out: 5-LOX enzyme residual activity at 1 µM (Table S1).
[4] abbreviates: PMNL, read-out: 5-LOX PMNL residual activity at 3 µM (Table S1).
[5] abbreviates: read-out: 5-LOX enzyme residual activity at 1 μM.
Setting [6] is: PMNL, read-out: 5-LOX PMNL residual activity at 3 μM.
The mark [7] stands for this setting: read-out: 5-LOX enzyme IC50, isolated human 5-LOX, cell-free, mean ± SEM.
The mark [8] stands for this setting: read-out: 5-LOX PMNL IC50, 5-LOX product formation in activated PMNL, mean ± SEM.

Like-named read-outs stand apart in the source and are kept apart here.

Usually IC50 stands for the concentration that inhibits the measured activity by half. `Cc1c(C=O)c(O)c(Cl)c2c1O[C@](C)(CCC[C@H](C)CCC[C@H](C)CCCC(C)C)CC2` [Compound 2, (R)-5-Chloro-6-hydroxy-2,8-dimethyl-2-((4R,8R)-4,8,12-trimethyltridecyl)chromane-7-carbaldehyde]: the IC50 was over 1000 nM at 5-LOX [1] and over 3000 nM on 5-LOX [2]. Further, at 5-LOX [1] (setting [3]), the remaining activity at 1 µM stood at 72.9 ± 5.6%. The remaining activity at 3 µM on 5-LOX [2] (setting [4]) is 110 ± 10.7%.
In the same order, the values of `Cc1cc(O)c(C=O)c2c1O[C@](C)(CCC[C@H](C)CCC[C@H](C)CCCC(C)C)CC2` [Compound 3] are over 1000 nM, over 3000 nM, 94.6 ± 3.5% and 92.2 ± 6.3%.
For `COCOc1cc(C)c2c(c1C=O)CC[C@@](C)(CCC[C@H](C)CCC[C@H](C)CCCC(C)C)O2` [Compound 4, (R)-6-(Methoxymethoxy)-2,8-dimethyl-2-((4R,8R)-4,8,12-trimethyltridecyl)chromane-5-carbaldehyde] the same measures were over 1000 nM, over 3000 nM, 77.3 ± 17.2% and 91.9 ± 5.3%.
Turning to `Cc1cc(O)c(C(=O)O)c2c1O[C@](C)(CCC[C@H](C)CCC[C@H](C)CCCC(C)C)CC2` [Compound 5], the IC50 on 5-LOX [1] was over 1000 nM; against 5-LOX [2], over 3000 nM. Also, at 5-LOX [1] (setting [3]), the remaining activity at 1 µM was determined as 54.6 ± 5.8%. Moreover, the remaining activity at 3 µM at 5-LOX [2] (setting [4]) was found to be 80.8 ± 0.6%.
For `CC(C)=CCC/C(C)=C/CC/C(C)=C/CC[C@]1(C)CCc2c(C=O)c(O)cc(C)c2O1` [Compound 7] the same measures were over 1000 nM, over 3000 nM, 74.5 ± 4.3% and 87.1 ± 8%.
In the same order, the values of `CC(C)=CCC/C(C)=C/CC/C(C)=C/CC[C@]1(C)CCc2c(C=O)c(O)c(Br)c(C)c2O1` [Compound 8] are over 1000 nM, over 3000 nM, 59 ± 5.9% and 79.2 ± 16.7%.
On to `C/C(=C\CC/C(C)=C/CC[C@]1(C)CCc2cc(O)cc(C)c2O1)CC/C=C(/C=O)CO` [Compound 11], for which the results for the IC50 on 5-LOX [1] and on 5-LOX [2] were 120 ± 50 nM and 570 ± 90 nM, respectively. Besides, the remaining activity at 1 µM is 0.4 ± 0.3% at 5-LOX [1] (setting [3]) and 17.6 ± 1.3% at 5-LOX [2] (PMNL, read-out: 5-LOX PMNL residual activity at 1 µM (Table S1, cell marked b)).
With `Cc1cc(O)cc2c1O[C@](C)(CCCC(C)CCCC(C)CCCC(C)C(=O)O)CC2` (some centres unmarked) [Compound 12b], the remaining activity at 1 µM on 5-LOX [1] (setting [5]) worked out at 51.4 ± 3.1%. Besides, on 5-LOX [2] (setting [6]), the remaining activity at 3 µM turned out to be 40.8 ± 3.5%.
In the same order, the values of `C/C(=C\CC/C(C)=C/CC[C@]1(C)CCc2cc(O)c(C)c(C)c2O1)CC/C=C(\C)C(=O)O` [Compound 13c] are 4.1 ± 3.6% and 1.6 ± 1.6%.
With `C/C(=C\CC/C(C)=C/CC[C@]1(C)CCc2cc(O)cc(C)c2O1)CC/C=C/C(=O)O` [Compound 14, (2E,6E,10E)-13-[(2R)-6-Hydroxy-2,8-dimethyl-3,4-dihydro-2H-1-benzopyran-2-yl]-6,10-dimethyltrideca-2,6,10-trienoic Acid], the IC50 on 5-LOX [1] (setting [7]) was determined as 440 ± 80 nM; at 5-LOX [2] (setting [8]), 2200 ± 140 nM. Moreover, the remaining activity at 1 µM at 5-LOX [1] (setting [5]) worked out at 24.5 ± 2.8%. Moreover, the remaining activity at 3 µM on 5-LOX [2] (setting [6]) worked out at 26.9 ± 4.8%.
In the same order, the values of `C/C(=C\CC[C@]1(C)CCc2c(C)c(O)c(C)c(C)c2O1)CC/C=C(\C)CCC(=O)O` [Compound 15a, (4E,8E)-11-((R)-6-Hydroxy-2,5,7,8-tetramethylchroman-2-yl)-4,8-dimethylundeca-4,8-dienoic Acid] are 440 ± 70 nM, 450 ± 120 nM, 11.5 ± 1.8% and 10.6 ± 5.8%.
Consider `C/C(=C\CC[C@]1(C)CCc2cc(O)cc(C)c2O1)CC/C=C(\C)CCC(=O)O` [Compound 15b, (4E,8E)-11-((R)-6-Hydroxy-2,8-dimethylchroman-2-yl)-4,8-dimethylundeca-4,8-dienoic Acid], for which the IC50 came to 470 ± 140 nM on 5-LOX [1] (setting [7]) and 2190 ± 400 nM on 5-LOX [2] (setting [8]). Further, the remaining activity at 1 µM on 5-LOX [1] (setting [5]) was 28.8 ± 5.2%. Further, the remaining activity at 3 µM on 5-LOX [2] (setting [6]) amounted to 32 ± 9.8%.
For `C/C(=C\CC[C@]1(C)CCc2cc(O)cc(C)c2O1)CC/C=C/C(=O)O` [Compound 16, (2E,6E)-9-[(2R)-6-Hydroxy-2,8-dimethyl-3,4-dihydro-2H-1-benzopyran-2-yl]-6-methylnona-2,6-dienoic Acid] the same measures were 920 ± 40 nM, over 3000 nM, 47.3 ± 1.1% and 77 ± 3.9%.
With `Cc1cc(O)cc2c1O[C@](C)(CC/C=C/C(=O)O)CC2` [Compound 17, (2E)-5-[(2R)-6-Hydroxy-2,8-dimethyl-3,4-dihydro-2H-1-benzopyran-2-yl]pent-2-enoic Acid], the half-maximal inhibitory concentration (IC50) is over 1000 nM at 5-LOX [1] (setting [7]) and over 3000 nM on 5-LOX [2] (setting [8]). Also, the remaining activity at 1 µM on 5-LOX [1] (setting [5]) was determined as 65.3 ± 25.2%. Further, on 5-LOX [2] (setting [6]), the remaining activity at 3 µM turned out to be 101 ± 5.2%.
For `C/C(=C\CC[C@]1(C)CCc2cc(O)cc(C)c2O1)C(=O)O` [Compound 18, (R,E)-5-(6-Hydroxy-2,8-dimethylchroman-2-yl)-2-methylpent-2-enoic Acid] the same measures were over 1000 nM, over 3000 nM, 56.4 ± 18.3% and 88.8 ± 6.4%.
With `COc1cc(C)c2c(c1)CC[C@@](C)(CC/C=C(\C)CC/C=C(\C)CCCC(C)C(=O)O)O2` (stereo partly drawn) [Compound 20, (6E,10E)-13-((R)-6-Methoxy-2,8-dimethylchroman-2-yl)-2,6,10-trimethyltrideca-6,10-dienoic Acid], at 5-LOX [1] (setting [7]), the half-maximal inhibitory concentration (IC50) is over 1000 nM. At 5-LOX [1] (setting [5]), the remaining activity at 1 µM worked out at 98.1 ± 1.3%.
In the same order, the values of `COC(=O)C(C)CCC/C(C)=C/CC/C(C)=C/CC[C@]1(C)CCc2cc(OC)cc(C)c2O1` (stereo partly drawn) [Compound 22, (6E,10E)-Methyl-13-((R)-6-methoxy-2,8-dimethylchroman-2-yl)-2,6,10-trimethyltrideca-6,10-dienoate] are over 1000 nM and 88.7 ± 4.3%.
In the same order, the values of `C/C(=C\CC[C@]1(C)CCc2cc(O)cc(C)c2O1)CCC(O)C(C)(O)CCC=C(CO)CO` (some centres unmarked) [Compound 30] are 380 ± 110 nM and 12.2 ± 4.1%.
In the same order, the values of `C/C(=C\CC/C(C)=C/CC[C@]1(C)CCc2cc(OCC(N)=O)cc(C)c2O1)CCC=C(CO)CO` [Compound 32, 2-(((R)-2-((3E,7E)-13-Hydroxy-12-(hydroxymethyl)-4,8-dimethyltrideca-3,7,11-trien-1-yl)-2,8-dimethylchroman-6-yl)oxy)acetamide] are over 1000 nM and 99.8 ± 5.6%.
For `COc1ccc(C2OCC(=CCC/C(C)=C/CC/C(C)=C/CC[C@]3(C)CCc4cc(O)cc(C)c4O3)CO2)cc1OC` (some centres unmarked) [Compound 44], the half-inhibitory concentration (IC50) on 5-LOX [1] amounted to 210 ± 140 nM. Also, on 5-LOX [1] (setting [5]), the remaining activity at 1 µM came to 12.7 ± 9.3%.
In the same order, the values of `COc1ccc(C2OCC(=CCC/C(C)=C/CC/C(C)=C/CC[C@]3(C)CCc4cc(OCCCC(=O)O)cc(C)c4O3)CO2)cc1OC` (stereo partly drawn) [Compound 45, 4-(((2R)-2-((3E,7E)-11-(2-(3,4-Dimethoxyphenyl)-1,3-dioxan-5-ylidene)-4,8-dimethylundeca-3,7-dien-1-yl)-2,8-dimethylchroman-6-yl)oxy)butanoic Acid] are over 1000 nM and 83 ± 7.6%.

Values taken from publication PMC8365602 (Journal of Medicinal Chemistry, 2021).
